From the NIST ThermoML archive (doi:10.1016/j.fluid.2006.11.005)
± gives the expanded uncertainty stated by the source.

Key:
[1] = 101.33 kPa, Liquid
[2] = xn = mol fraction of the nth substance listed; conditions: 101.33 kPa, Liquid

c1ccccc1 [benzene]
[1]
Conditions | mass density [kg/m3]
288.15 K | 884.246 ± 0.31
293.15 K | 878.918 ± 0.32
298.15 K | 873.582 ± 0.32
303.15 K | 868.233 ± 0.33
308.15 K | 862.871 ± 0.34
313.15 K | 857.498 ± 0.35

c1ccccc1 [benzene] + ClC(Cl)Cl
[2], x2 = 0
Conditions | mass density [kg/m3]
288.15 K | 884.246 ± 0.31
293.15 K | 878.918 ± 0.32
298.15 K | 873.582 ± 0.32
303.15 K | 868.233 ± 0.33
308.15 K | 862.871 ± 0.34
313.15 K | 857.498 ± 0.35

CCO [ethanol]
[1]
Conditions | mass density [kg/m3]
288.15 K | 793.721 ± 0.45
293.15 K | 789.454 ± 0.46
298.15 K | 785.164 ± 0.47
303.15 K | 780.853 ± 0.47
308.15 K | 776.51 ± 0.48
313.15 K | 772.138 ± 0.48

CCO [ethanol] + ClC(Cl)Cl
[2], x1 = 1
Conditions | mass density [kg/m3]
288.15 K | 793.721 ± 0.45
293.15 K | 789.454 ± 0.46
298.15 K | 785.164 ± 0.47
303.15 K | 780.853 ± 0.47
308.15 K | 776.51 ± 0.48
313.15 K | 772.138 ± 0.48

ClC(Cl)Cl [trichloromethane]
[1]
Conditions | mass density [kg/m3]
288.15 K | 1498.08 ± 0.92
293.15 K | 1488.64 ± 0.91
298.15 K | 1479.15 ± 0.89
303.15 K | 1469.61 ± 0.88
308.15 K | 1460.03 ± 0.86
313.15 K | 1450.41 ± 0.85

ClC(Cl)Cl [trichloromethane] + c1ccccc1
mass density [kg/m3], [2]
Conditions | 288.15 K | 293.15 K | 298.15 K | 303.15 K | 308.15 K | 313.15 K
x1 = 0.1001 | 939.224 ± 0.25 | 933.584 ± 0.26 | 927.935 ± 0.26 | 922.271 ± 0.27 | 916.586 ± 0.28 | 910.883 ± 0.29
x1 = 0.2 | 995.529 ± 0.18 | 989.568 ± 0.18 | 983.589 ± 0.19 | 977.59 ± 0.2 | 971.567 ± 0.21 | 965.527 ± 0.21
x1 = 0.3072 | 1057.3 ± 0.25 | 1050.96 ± 0.24 | 1044.61 ± 0.23 | 1038.23 ± 0.22 | 1031.82 ± 0.21 | 1025.38 ± 0.2
x1 = 0.3995 | 1111.96 ± 0.33 | 1105.29 ± 0.32 | 1098.58 ± 0.31 | 1091.85 ± 0.3 | 1085.08 ± 0.29 | 1078.27 ± 0.28
x1 = 0.4997 | 1172.45 ± 0.42 | 1165.38 ± 0.41 | 1158.28 ± 0.4 | 1151.15 ± 0.39 | 1143.98 ± 0.38 | 1136.78 ± 0.36
x1 = 0.6 | 1234.48 ± 0.52 | 1226.99 ± 0.5 | 1219.47 ± 0.49 | 1211.92 ± 0.48 | 1204.33 ± 0.47 | 1196.74 ± 0.46
x1 = 0.6652 | 1275.68 ± 0.58 | 1267.9 ± 0.57 | 1260.09 ± 0.56 | 1252.24 ± 0.54 | 1244.34 ± 0.53 | 1236.41 ± 0.52
x1 = 0.7991 | 1362.32 ± 0.71 | 1353.91 ± 0.7 | 1345.46 ± 0.69 | 1336.97 ± 0.68 | 1328.42 ± 0.66 | 1319.82 ± 0.65
x1 = 0.8009 | 1363.45 ± 0.72 | 1355.03 ± 0.7 | 1346.58 ± 0.69 | 1338.09 ± 0.68 | 1329.56 ± 0.66 | 1321.04 ± 0.65
x1 = 0.9 | 1429.59 ± 0.82 | 1420.68 ± 0.81 | 1411.71 ± 0.79 | 1402.7 ± 0.78 | 1393.63 ± 0.77 | 1384.52 ± 0.75
x1 = 1 | 1498.08 ± 0.92 | 1488.64 ± 0.91 | 1479.15 ± 0.89 | 1469.61 ± 0.88 | 1460.03 ± 0.86 | 1450.41 ± 0.85
